The results in this text go back to patent US6632809B2, “Gyrase inhibitors and uses thereof” (Vertex Pharmaceuticals Incorporated, priority 2000, dated 2003).

Chain of DNA gyrase (374 kDa Gyr A2B2 subunit from Staphylococcus aureus) (P0A0K8 whole entry): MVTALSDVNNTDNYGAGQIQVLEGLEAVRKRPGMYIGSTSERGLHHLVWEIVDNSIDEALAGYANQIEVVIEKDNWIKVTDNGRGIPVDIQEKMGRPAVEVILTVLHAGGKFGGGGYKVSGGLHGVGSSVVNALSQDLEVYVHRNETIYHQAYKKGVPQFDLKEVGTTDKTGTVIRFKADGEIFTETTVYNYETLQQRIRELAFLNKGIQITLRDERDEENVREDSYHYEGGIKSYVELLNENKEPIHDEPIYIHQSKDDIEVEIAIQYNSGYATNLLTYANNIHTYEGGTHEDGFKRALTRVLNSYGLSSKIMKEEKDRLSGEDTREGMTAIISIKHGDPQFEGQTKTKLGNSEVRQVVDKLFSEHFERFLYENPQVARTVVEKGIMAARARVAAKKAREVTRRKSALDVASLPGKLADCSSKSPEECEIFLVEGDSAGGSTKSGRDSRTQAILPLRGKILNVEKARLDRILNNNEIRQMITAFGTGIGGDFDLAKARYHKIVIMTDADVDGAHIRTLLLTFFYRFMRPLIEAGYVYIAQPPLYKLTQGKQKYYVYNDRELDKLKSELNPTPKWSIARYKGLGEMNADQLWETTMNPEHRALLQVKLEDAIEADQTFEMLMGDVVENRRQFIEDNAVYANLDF
Chain of DNA gyrase (374 kDa Gyr A2B2 subunit from Staphylococcus aureus) (P20831 whole entry, further chain): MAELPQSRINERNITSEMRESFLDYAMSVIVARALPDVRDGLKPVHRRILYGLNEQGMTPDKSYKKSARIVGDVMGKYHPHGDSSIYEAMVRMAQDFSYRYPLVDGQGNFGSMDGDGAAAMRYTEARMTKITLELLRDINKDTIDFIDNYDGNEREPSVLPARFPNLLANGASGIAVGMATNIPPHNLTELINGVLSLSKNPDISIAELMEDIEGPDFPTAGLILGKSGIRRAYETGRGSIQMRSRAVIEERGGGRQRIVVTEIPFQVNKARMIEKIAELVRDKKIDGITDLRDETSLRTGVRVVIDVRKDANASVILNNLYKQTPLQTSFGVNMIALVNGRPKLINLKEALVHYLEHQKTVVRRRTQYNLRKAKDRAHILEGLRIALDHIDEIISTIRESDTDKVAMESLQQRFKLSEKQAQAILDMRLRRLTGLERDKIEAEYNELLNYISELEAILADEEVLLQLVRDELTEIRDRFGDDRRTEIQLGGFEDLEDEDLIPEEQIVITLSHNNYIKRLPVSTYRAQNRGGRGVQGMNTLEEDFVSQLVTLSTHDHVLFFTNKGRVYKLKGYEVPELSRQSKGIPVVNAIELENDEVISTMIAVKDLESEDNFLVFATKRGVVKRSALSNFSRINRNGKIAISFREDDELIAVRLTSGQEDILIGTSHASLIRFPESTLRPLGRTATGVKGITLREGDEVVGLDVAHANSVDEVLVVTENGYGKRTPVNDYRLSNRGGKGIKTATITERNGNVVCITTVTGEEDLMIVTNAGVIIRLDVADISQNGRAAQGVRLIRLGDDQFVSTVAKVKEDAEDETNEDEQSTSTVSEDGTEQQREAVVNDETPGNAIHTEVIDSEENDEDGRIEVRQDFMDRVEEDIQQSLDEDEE

One assay concerns the target DNA gyrase (374 kDa Gyr A2B2 subunit from Staphylococcus aureus) (Staphylococcus aureus, UniProt P0A0K8). Kind of assay: Gyrase ATPase Assay. It is filed as biochemical. The note with it: 10 μM concentration; ATPase assay at 30° C., 0.9 mM ATP; average of duplicate values. How it is done:
The ATP hydrolysis activity of DNA gyrase was measure by coupling the production of ADP through pyruvate kinase/lactate dehydrogenase to the oxidation of NADH. This method has been described previously (Tamura and Gellert, 1990, J. Biol. Chem., 265, 21342).
ATPase assays are carried out at 30° C. in buffered solutions containing 100 mM TRIS pH 7.6, 1.5 mM MgCl2, 50 mM KCl. The coupling system contains (final concentrations) 2.5 mM phosphoenol pyruvate, 200 μM nicotinamide adenine dinucleotide (NADH), 1 mM DTT, […], and 10 ug/ml lactate dehydrogenase. 40 nanomolar enzyme (374 kDa Gyr A2B2 subunit from Staphylococcus aureus) and a DMSO solution of the inhibitor to a final concentration of 4% are added and the reaction mixture is allowed to incubate for 10 minutes at 30° C. The reaction is then started by the addition of ATP to a final concentration of 0.9 mM and the rate of NADH disappearance at 340 nanometers is measured over the course of 10 minutes. The percent inhibition values are determined from rate versus concentration profiles and are reported as the average of duplicate values.
The compound numbers correspond to the compound numbers in Table 1. Compounds having an activity designated as “A” provided a percent inhibition value below 50 percent; compounds having an activity designated as “B” provided a percent inhibition value between 50 and 75 percent; and compounds having an activity designated as “C” provided a percent inhibition value greater than 75 percent.
In the case of `CCNC(=S)Nc1nc2cc(-c3ccccc3)ccc2[nH]1` [Ia-36], the “Gyrase Inhibitory Activity (percent inhibition)” value is “A (provided a percent inhibition value below 50 percent)”.

The assay is the same for the next values; noted with them: 10 μM concentration; ATPase assay at 30° C., 0.9 mM ATP; average of duplicate values; read-out: Gyrase Inhibitory Activity (percent inhibition).
As for `CCOC(=O)Nc1nc2cc(-c3ccccc3)ccc2[nH]1` [Ia-1], the inhibition (usually the drop in the measured response relative to a control, in per cent) at 10 µM is 50 to 75%.

Take `CCOC(=O)Nc1nc2cc(-c3cccs3)ccc2[nH]1` [Ia-2]: the inhibition at 10 µM was 50 to 75%.

Turning to `CCOC(=O)Nc1nc2cc(-c3ccccn3)ccc2[nH]1` [Ia-3], the inhibition at 10 µM lay in the range of 50 to 75%.

With `CCOC(=O)Nc1nc2cc(-c3ccncc3)ccc2[nH]1` [Ia-4], the inhibition at 10 µM was over 75%.

In the case of `Nc1nc2cc(-c3ccccc3)ccc2[nH]1` [Ia-6], the inhibition at 10 µM was under 50%.

Turning to `COC(=O)Nc1nc2cc(-c3ccccc3)ccc2[nH]1` [Ia-7], the inhibition at 10 µM was under 50%.

As for `C#CCOC(=O)Nc1nc2cc(-c3ccccc3)ccc2[nH]1` [Ia-8], the inhibition at 10 µM is under 50%.

Regarding `CCOC(=O)Nc1nc2cc(-c3ccccc3C(F)(F)F)ccc2[nH]1` [Ia-9], the inhibition at 10 µM is under 50%.

Regarding `CCOC(=O)Nc1nc2cc(-c3ccccc3)ccc2n1C` [Ia-10], the inhibition at 10 µM was under 50%.

Turning to `CCOC(=O)Nc1nc2cc(-c3cccnc3)ccc2[nH]1` [Ia-11, (5-Pyridin-3-yl-1H-benzoimidazol-2-yl)-carbamic acid ethyl ester], the inhibition at 10 µM is over 75%.

As to `CCOC(=O)Nc1nc2cc(-c3ccc(N(C)C)cc3)ccc2[nH]1` [Ia-12], the inhibition at 10 µM was in the range of 50 to 75%.

Turning to `CCCc1cc(-c2ccccc2)cc2nc(NC(=O)OCC)[nH]c12` [Ia-13], the inhibition at 10 µM is under 50%.

With `CCOC(=O)Nc1nc2cc(-c3cc(F)c(F)cc3F)ccc2[nH]1` [Ia-14], the inhibition at 10 µM lay within 50 to 75%.

With `CCOC(=O)Nc1nc2cc(-c3cccc(OCC)c3)ccc2[nH]1` [Ia-15], the inhibition at 10 µM fell in the range of 50 to 75%.

Regarding `CCOC(=O)Nc1nc2cc(-c3cnc(OC)nc3OC)ccc2[nH]1` [Ia-16], the inhibition at 10 µM was over 75%.

As to `CCOC(=O)Nc1nc2cc(-c3cccnc3)cc(Br)c2[nH]1` [Ia-17], the inhibition at 10 µM was over 75%.

In the case of `CCOC(=O)Nc1nc2cc(-c3ccc(OC)nc3)ccc2[nH]1` [Ia-18], the inhibition at 10 µM was over 75%.

As to `CCOC(=O)Nc1nc2cc(-c3ccccc3)cc(Br)c2[nH]1` [Ia-19], the inhibition at 10 µM was over 75%.

Take `O=C(Nc1nc2cc(-c3ccccc3)cc(Br)c2[nH]1)N1CCCCC1` [Ia-20]: the inhibition at 10 µM is under 50%.

On to `CCOC(=O)Nc1nc2cc(-c3cncnc3)ccc2[nH]1` [Ia-21], for which the inhibition at 10 µM was over 75%.

As to `CCOC(=O)Nc1nc2cc(-c3cnc(OC)nc3)ccc2[nH]1` [Ia-22], the inhibition at 10 µM is over 75%.

As to `CCOC(=O)Nc1nc2cc(-c3ccc(OC)cc3)ccc2[nH]1` [Ia-23], the inhibition at 10 µM is over 75%.

Turning to `CCOC(=O)Nc1nc2cc(-c3cccc(C(=O)O)c3)ccc2[nH]1` [Ia-24], the inhibition at 10 µM was over 75%.

Take `CCOC(=O)Nc1nc2cc(-c3ccc(OC)c(OC)c3)ccc2[nH]1` [Ia-26]: the inhibition at 10 µM lay in the range of 50 to 75%.

As for `CCNC(=O)Nc1nc2cc(C(=O)O)ccc2[nH]1` [Ia-33], the inhibition at 10 µM is under 50%.

Turning to `CCNC(=S)Nc1nc2cc(-c3cccnc3)ccc2[nH]1` [Ia-34], the inhibition at 10 µM is over 75%.

`CCNC(=O)Nc1nc2cc(-c3cnc(NCC(=O)O)nc3)ccc2[nH]1` [Ia-35]: the inhibition at 10 µM is over 75%.

As to `CCNC(=S)Nc1nc2cc(-c3cnc(NCC(=O)OC(C)(C)C)nc3)ccc2[nH]1` [Ia-37], the inhibition at 10 µM was over 75%.

`O=C(Nc1nc2cc(-c3cccnc3)ccc2[nH]1)NC1CC1` [Ia-38]: the inhibition at 10 µM is 50 to 75%.

As for `CCNC(=S)Nc1nc2cc(-c3cnc(NCC(=O)O)nc3)ccc2[nH]1` [Ia-39], the inhibition at 10 µM is over 75%.

As to `CCNC(=O)Nc1nc2cc(-c3cnc(NC(COC(C)(C)C)C(=O)OC(C)(C)C)nc3)ccc2[nH]1` (stereo not drawn) [Ia-40], the inhibition at 10 µM is over 75%.

Consider `CC(C)(C)OCC(Nc1ncc(-c2ccc3[nH]c(NC#N)nc3c2)cn1)C(=O)OC(C)(C)C` (stereo not drawn) [Ia-41], for which the inhibition at 10 µM was under 50%.

`CCNC(=O)Nc1nc2cc(-c3ccccc3)cc(C)c2[nH]1` [Ia-43]: the inhibition at 10 µM was over 75%.

On to `CCNC(=O)Nc1nc2cc(-c3cnc(NC4CC4)nc3)ccc2[nH]1` [Ia-44], for which the inhibition at 10 µM is over 75%.

In the case of `CCNC(=O)Nc1nc2cc(-c3cnc(NC(CO)C(=O)O)nc3)ccc2[nH]1` (stereo not drawn) [Ia-45], the inhibition at 10 µM was over 75%.

Consider `CCNC(=O)Nc1nc2cc(C(=O)NOC(C)(C)C)ccc2[nH]1` [Ia-46], for which the inhibition at 10 µM is under 50%.

For the compound `CCNC(=O)Nc1nc2cc(-c3cnc(NCC4CCCO4)nc3)ccc2[nH]1` (stereo not drawn) [Ia-47], the inhibition at 10 µM was over 75%.

On to `CCNC(=O)Nc1nc2cc(-c3cnc(NCc4ccccn4)nc3)ccc2[nH]1` [Ia-48], for which the inhibition at 10 µM is over 75%.

Regarding `CCNC(=O)Nc1nc2cc(-c3cnc(NCc4ccc(OC)cc4)nc3)ccc2[nH]1` [Ia-49], the inhibition at 10 µM is over 75%.

For the compound `CCNC(=O)Nc1nc2cc(-c3ccccc3)cc(OC)c2[nH]1` [Ia-50], the inhibition at 10 µM was in the range of 50 to 75%.

For the compound `CCNC(=O)Nc1nc2cc(-c3cnc(OC)nc3OC)ccc2[nH]1` [Ia-52], the inhibition at 10 µM was over 75%.

Consider `CCNC(=O)Nc1nc2cc(-c3cnc(N4CCOCC4)nc3)ccc2[nH]1` [Ia-53], for which the inhibition at 10 µM is over 75%.

Consider `CCNC(=O)Nc1nc2cc(-c3cnc(N)nc3)ccc2[nH]1` [Ia-54], for which the inhibition at 10 µM is over 75%.

Regarding `CCNC(=O)Nc1nc2cc(-c3cnc(NCCN4CCCC4)nc3)ccc2[nH]1` [Ia-55], the inhibition at 10 µM was over 75%.

`CCNC(=O)Nc1nc2cc(-c3cnc(NCc4cccc(F)c4)nc3)ccc2[nH]1` [Ia-56]: the inhibition at 10 µM is over 75%.

On to `CCNC(=O)Nc1nc2cc(-c3cnc(NC4CCCC4)nc3)ccc2[nH]1` [Ia-57], for which the inhibition at 10 µM was over 75%.

Turning to `CCNC(=O)Nc1nc2cc(-c3cncc(C(=O)OCC)c3)ccc2[nH]1` [Ia-59], the inhibition at 10 µM was over 75%.

On to `CCNC(=O)Nc1nc2cc(-c3cncc(C(=O)O)c3)ccc2[nH]1` [Ia-60], for which the inhibition at 10 µM was over 75%.

Consider `CCNC(=O)Nc1nc2cc(-c3cnc(NCc4ccc(F)c(Cl)c4)nc3)ccc2[nH]1` [Ia-61], for which the inhibition at 10 µM was over 75%.

With `CCNC(=O)Nc1nc2cc(-c3cccnc3)c(F)cc2[nH]1` [Ia-62], the inhibition at 10 µM was over 75%.

On to `CCNC(=O)Nc1nc2cc(-c3cnc(NCCc4ccccn4)nc3)ccc2[nH]1` [Ia-63], for which the inhibition at 10 µM is over 75%.

With `CCNC(=O)Nc1nc2cc(-c3cnc(N4CCN(C)CC4)nc3)ccc2[nH]1` [Ia-64], the inhibition at 10 µM is over 75%.

Regarding `CCNC(=O)Nc1nc2cc(-c3cnc(N4CCCC4)nc3)ccc2[nH]1` [Ia-65], the inhibition at 10 µM was over 75%.

With `CCNC(=O)Nc1nc2cc(-c3cnc(NCC)nc3)ccc2[nH]1` [Ia-66], the inhibition at 10 µM is over 75%.

On to `CCOC(=O)Nc1nc2cc(-c3ccc4[nH]c(NC(=O)OCC)nc4c3)ccc2[nH]1` [Ia-67], for which the inhibition at 10 µM was over 75%.

As for `CCOC(=O)Nc1nc2cc(-c3cnc(N4CCN(C(=O)OC(C)(C)C)CC4)nc3)ccc2[nH]1` [Ia-69], the inhibition at 10 µM was in the range of 50 to 75%.

In the case of `CCOC(=O)Nc1nc2cc(-c3cnc(N4CCNCC4)nc3)ccc2[nH]1` [Ia-70], the inhibition at 10 µM is over 75%.

As to `CCOC(=O)Nc1nc2cc(-c3ccc(=O)[nH]c3)ccc2[nH]1` [Ia-71], the inhibition at 10 µM is under 50%.

As to `CCOC(=O)Nc1nc2cc(-c3cnc(N)nc3)ccc2[nH]1` [Ia-72], the inhibition at 10 µM was over 75%.
